# Assay results from the RepoRT retention time repository.
# Assay: HILIC, Waters ACQUITY UPLC BEH Amide, 100 × 2.1 mm, 1.7 µm; A: water + 0.125% formic acid + 10 mM ammonium formate; B: 5% water + 95% acetonitrile + 0.125% formic acid + 10 mM ammonium formate; gradient (min/%B) 0/100 2/100 7.7/70 9.5/40 10.25/30 12.75/100 17/100
# Details: stereoisomer not certain
row,Compound,LC retention time [min]
1,COc1ccc(CN2CCN(C(c3ccc(F)cc3)c3ccc(F)cc3)CC2)c(OC)c1OC [Lomerizine],1.7
2,COc1ccc2c(c1)c(CC(=O)O)c(C)n2C(=O)c1ccc(Cl)cc1 [Indomethacin],1.08
3,CN(C)CCCN1c2ccccc2CCc2ccc(Cl)cc21 [Clomipramine],2.31
4,C[N+](C)(C)CCO [Choline [M]+],5.18
5,Nc1nc2c(ncn2C2OC(CO)C(O)C2O)c(=O)[nH]1 (centres undefined) [Guanosine],7.33
6,Cc1ccsc1C(=CCCN1CCCC(C(=O)O)C1)c1sccc1C (centres undefined) [Tiagabine],3.94
7,NCC(=O)NCC(=O)NCC(=O)O [Gly-Gly-Gly],9.18
8,COC(=O)C1=C(C)NC(C)=C(C(=O)OC)C1c1ccccc1[N+](=O)[O-] [Nifedipine],1.02
9,CN1CCN(c2nc3cc(C(F)(F)F)ccc3n3cccc23)CC1,2.21
10,COc1ccc2c3c1OC1C(=O)CCC4(O)C(C2)N(C)CCC314 (centres undefined) [Oxycodone],4.58
11,O=c1c(O)c(-c2ccc(O)cc2)oc2cc(O)cc(O)c12 [Kaempferol],1.4
12,COc1ccc2[nH]cc(C3=CCNCC3)c2c1,4.61
13,CC(C)(C)NCC(O)c1ccc(O)c(CO)c1 (centres undefined) [Albuterol],5.55
14,Cn1cc(CC(N)C(=O)O)c2ccccc21 (centres undefined) [1-Methyltryptophan],6.38
15,CCC(C)C(NC(=O)C(C)N)C(=O)O (centres undefined) [Ala-Ile],7.83
16,O=C(c1ccccc1)c1ccc2n1CCC2C(=O)O (centres undefined) [Toradol],1.29
17,CC(O)(CS(=O)(=O)c1ccc(F)cc1)C(=O)Nc1ccc(C#N)c(C(F)(F)F)c1 (centres undefined) [Bicalutamide],0.99
18,COc1cc(C2c3cc4c(cc3C(OC3OC5COC(C)OC5C(O)C3O)C3COC(=O)C23)OCO4)cc(OC)c1O (centres undefined) [Etoposide],1.3
19,O=CNC1CCCCC1 [N-Cyclohexylformamide],1.2
20,O=[N+]([O-])c1cccc2cn[nH]c12 [7-Nitroindazole],1.03
21,CC(C)=CCNc1ncnc2c1ncn2C1OC(CO)C(O)C1O (centres undefined) [N6-Isopentenyladenosine],1.48
22,CC(NC(=O)C(N)CCCN=C(N)N)C(=O)O (centres undefined) [Arg-Ala],9.66
23,CC(=O)OC1(C(C)=O)CCC2C3C=C(C)C4=CC(=O)CCC4(C)C3CCC21C (centres undefined) [Megestrol Acetate],0.96
24,"COc1ccc(C=O)cc1OC [3,4-Dimethoxybenzaldehyde]",1.08

row,Compound,LC retention time [min]
1,COc1ccc(-c2coc3cc(O)ccc3c2=O)cc1 [Formononetine],1.18
2,CSc1nc2cc(Oc3cccc(Cl)c3Cl)c(Cl)cc2[nH]1 [Triclabendazole],1.01
3,c1cncc(C2CCCN2)c1 (centres undefined) [Nornicotine],5.98
4,CNC(=C[N+](=O)[O-])NCCSCc1csc(CN(C)C)n1 [Nizatidine],4.65
5,CC12Cc3cn[nH]c3CC1CCC1C2CCC2(C)C1CCC2(C)O (centres undefined) [Stanozolol],1.19
6,CC1(C)CC1C(=O)NC(=CCCCCSCC(N)C(=O)O)C(=O)O (centres undefined) [Cilastatin],7.63
7,CN1CCc2cc(Cl)c(O)cc2C(c2ccccc2)C1 (centres undefined) [UNII-UGT5535REQ],2.89
8,CN1C2CCC1CC(OC(=O)c1c[nH]c3ccccc13)C2 (centres undefined) [Tropisetron],3.81
9,CCN(CC)CC1CCCCN1CC(=O)N1c2ccccc2C(=O)Nc2cccnc21 (centres undefined) [Otenzepad],2.94
10,COC(=O)C1=C(C)NC(C)=C(C(=O)OC(C)C)C1c1cccc2nonc12 (centres undefined) [Isradipine],0.95
11,NC(=O)c1cccnc1 [Nicotinamide],1.7
12,Cn1cncc1CC(NC(=O)CCN)C(=O)O (centres undefined) [Anserine],9.49
13,Cc1cn(C2CC(O)C(COP(=O)(O)O)O2)c(=O)[nH]c1=O (centres undefined),8.28
14,CCCN1CC(CSC)CC2c3cccc4[nH]cc(c34)CC21 (centres undefined) [Pergolide],2.41
15,"CCNC(C)Cc1ccc2c(c1)OCO2 (centres undefined) [3,4-Methylenedioxyethamphetamine]",2.94
16,CN(C)CCCSc1ccccc1NC(=O)C=Cc1ccccc1 [Cinanserin],2.61
17,CCC(=O)Nc1ccc(Cl)c(Cl)c1 [Propanil],1.08
18,Cc1ncc(CO)c(CN)c1O [Pyridoxamine],8.1
19,CC=C1C2C=C(C)CC1(N)c1ccc(=O)[nH]c1C2 (centres undefined) [Huperzine],5.74
20,CC(=O)N1CCCCCC1=O [N-Acetylcaprolactam],2.3
21,O=C(CO)c1ccccc1 [2-Hydroxyacetophenone],4.36
22,O=C1CCC(C(=O)N2CSCC2C(=O)O)N1 (centres undefined) [Pidotimod],7.3
23,CNc1ccccc1C(=O)O [N-Methylanthranilic acid],1.22
24,CC(C)OC(=O)CCCC=CCC1C(O)CC(O)C1CCC(O)CCc1ccccc1 (centres undefined) [Latanoprost],1.06

row,Compound,LC retention time [min]
1,CCCCC1=NC2(CCCC2)C(=O)N1Cc1ccc(-c2ccccc2-c2nn[nH]n2)cc1 [Irbesartan],1.16
2,CC12CCC3C(CCC4=CC(=O)CCC43C)C1CCC2=O (centres undefined) [Androstenedione],1.09
3,CC(C)CC1NC(=O)C2CCCN2C1=O (centres undefined) [Cyclo(Leu-Pro)],1.29
4,CN1CCCCC1CCN1c2ccccc2Sc2ccc(S(C)=O)cc21 (centres undefined) [Mesoridazine],4.24
5,CCC1(CC)C(=O)NCC(C)C1=O (centres undefined) [Methyprylon],1.18
6,CC(=O)NC(CCCN)C(=O)O [N-alpha-Acetyl-L-ornithine],8.31
7,Cc1ncc(COP(=O)(O)O)c(C=O)c1O [Pyridoxal-5-phosphate],7.7
8,NCCc1ccc(O)c(O)c1 [Dopamine],6.4
9,O=C1CN=C(c2ccccc2)c2cc(Cl)ccc2N1CC1CC1 [Prazepam],1.07
10,NCCc1cnc[nH]1 [Histamine],8.29
11,NC(=NCc1ccc(Cl)cc1)SCCCc1cnc[nH]1 [Clobenpropit],6.13
12,N#CC(O)c1ccc(O)cc1 (centres undefined) [4-Hydroxymandelonitrile],2.63
13,CC1NCCOC1c1ccccc1 (centres undefined) [Phenmetrazine],4.04
14,COc1cc2c(cc1OC)C1C(C)c3ccc(OC)c(OC)c3CN1CC2 (centres undefined) [Corydaline],1.52
15,NC(CCO)C(=O)O (centres undefined) [Homoserine],8.29
16,O=C(O)c1cccnc1 [Nicotinic acid],4.01
17,CC(N=C(NC#N)Nc1ccncc1)C(C)(C)C (centres undefined) [Pinacidil],1.49
18,CCCC(=O)O [Butanoic acid],10.2
19,CC(C)(C)NC(=O)C1CN(Cc2cccnc2)CCN1CC(O)CC(Cc1ccccc1)C(=O)NC1c2ccccc2CC1O (centres undefined) [Indinavir],2.17
20,NCCCCC(N)C(=O)O (centres undefined) [Lysine],9.54
21,CSCCC(NC(=O)CCC(N)C(=O)O)C(=O)O (centres undefined) [gamma-Glutamylmethionine],8.55
22,CC(=O)NC(CS)C(=O)O (centres undefined) [N-Acetylcysteine],5.28
23,CC(=O)Oc1ccccc1C(=O)Nc1ncc([N+](=O)[O-])s1 [Nitazoxanide],1
24,Cc1nnc2n1-c1ccc(Cl)cc1C(c1ccccc1)=NC2 [Alprazolam],1.34

row,Compound,LC retention time [min]
1,"Cn1c(=O)[nH]c2[nH]c(=O)n(C)c2c1=O [1,7-Dimethyluric acid]",4.09
2,CC(C)C(=O)NCC(=O)O [N-Isobutyrylglycine],3.6
3,O=C1CN=C(c2ccccc2)c2cc([N+](=O)[O-])ccc2N1 [Nitrazepam],1.2
4,NC(=O)OCCCc1ccccc1 [Phenprobamate],1.01
5,NC(COP(=O)(O)O)C(=O)O (centres undefined) [O-Phosphoserine],9.85
6,CC[N+](C)(CC)CCOC(=O)C(O)(c1ccccc1)C1CCCCC1 (centres undefined) [Oxyphenonium],2.01
7,CC(=O)NCCc1cnc[nH]1 [N-omega-Acetylhistamine],6
8,CC(C)C1CCC(C(=O)NC(Cc2ccccc2)C(=O)O)CC1 (centres undefined) [Nateglinide],1.3
9,Cc1ncsc1CCO [4-Methyl-5-thiazoleethanol],1.21
10,CN(C)CCOC(c1ccccc1)c1ccccc1 [Diphenhydramine],2.15
11,CC1OC(Oc2c(-c3ccc(O)c(O)c3)oc3cc(O)cc(O)c3c2=O)C(O)C(O)C1O (centres undefined) [Quercetin-3-ramnoside],4.7
12,O=P(O)(O)Oc1ccccc1 [Phenylphosphoric acid],7.05
13,CCCCCCCCCCCCCCCCCC(=O)OCC(O)CO (centres undefined) [1-Monostearin],0.99
14,Cc1ccc(-c2nc3ccc(C)cn3c2CC(=O)N(C)C)cc1 [Zolpidem],1.62
15,COc1ccc(Cc2nccc3cc(OC)c(OC)cc23)cc1OC [Papaverine],1.54
16,NCC(=O)NC(Cc1ccc(O)cc1)C(=O)O (centres undefined) [Gly-Tyr],8.07
17,CC(=O)CCCC(=O)O [4-Acetylbutyric acid],1.24
18,CCCN1CCCCC1C(=O)Nc1c(C)cccc1C (centres undefined) [Ropivacaine],2.49
19,Oc1ccc2c3c1OC1C(O)CCC4(O)C(C2)N(CC2CCC2)CCC314 (centres undefined) [Nalbuphine],5.25
20,O=C(O)CCC(=O)O [Succinic acid],4.46
21,CC(C)C(C)C=CC(C)C1CCC2C3=CC=C4CC(O)CCC4(C)C3CCC21C (centres undefined) [Ergosterol],1.43
22,NC(Cc1ccc(O)cc1)C(=O)NC(Cc1ccc(O)cc1)C(=O)NC(Cc1ccc(O)cc1)C(=O)O (stereo not drawn) [Tyr-Tyr-Tyr],7.09
